US8431596B2 (Cancer Research Technology Limited, priority 2007, dated 2013)

Molecular target: T1, AXL (human catalytic domain) (Homo sapiens, UniProt P30530)
T1 construct: purchased Upstate Ltd. 14-512
T1 sequence (P30530 473-894): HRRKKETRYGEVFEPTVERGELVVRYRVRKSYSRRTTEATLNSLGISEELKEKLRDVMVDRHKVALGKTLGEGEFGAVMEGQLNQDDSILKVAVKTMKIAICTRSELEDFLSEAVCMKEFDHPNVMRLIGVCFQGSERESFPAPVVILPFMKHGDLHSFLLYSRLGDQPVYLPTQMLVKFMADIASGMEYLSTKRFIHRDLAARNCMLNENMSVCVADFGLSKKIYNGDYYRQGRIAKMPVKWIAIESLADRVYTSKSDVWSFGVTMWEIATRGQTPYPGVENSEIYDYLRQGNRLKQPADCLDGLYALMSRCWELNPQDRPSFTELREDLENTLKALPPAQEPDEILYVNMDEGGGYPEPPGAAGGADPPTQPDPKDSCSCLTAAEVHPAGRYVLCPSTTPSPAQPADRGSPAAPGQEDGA
Experiment: AXL (human catalytic domain) Enzyme Activity Assay (IMAP fluorescence polarisation)
Type: biochemical
Procedure, shortened: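 IMAP FP readout (Ex485/Em535, after overnight binding) measured inhibition of the human AXL catalytic domain (aa473-894, 15 nM final) acting on 100 nM 5FAM-CSK-tide at 150 μM ATP, equal to KM. Reactions ran 60 min at room temperature in pH 7.0 HEPES buffer; IC50 from 10-point curves.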

[1] = further data set (WW-001 through WW-169, XX-001 through XX-469, YY-001 through YY-016, ZZ-001 through ZZ-003), 150 μM ATP
[2] = first data set, recombinant AXL isoform 1 aa473-894, 150 μM ATP

Row | Compound | IC50 [1] [nM] | IC50 [2] [nM]
1 | Cc1ccc(-c2cccc3nc(Nc4cccc(C(=O)NCCN5CCCC5)c4)nn23)cc1F [XX-365] | 100 to 1000 | –
2 | c1cc(-c2ccc3c(c2)OCCO3)n2nc(Nc3ccnc(OCCN4CCCCC4)c3)nc2c1 [XX-101] | ≤ 100 | –
3 | CCCCCn1cc(-c2cccc3nc(Nc4ccc(OCCN5CCCC5)cc4)nn23)cn1 [XX-343] | 100 to 1000 | –
4 | CN(C)C(=O)c1ccc(-c2cccc3nc(Nc4ccc(OCCN5CCCC5)cc4)nn23)cc1 [XX-239] | 1000 to 10000 | –
5 | COc1ccc(-c2cccc3nc(Nc4ccc(OCCN(C)Cc5ccccc5)cc4)nn23)cc1 [XX-064] | 100 to 1000 | < 1000
6 | O=C(CCN1CCCC1)Nc1ccc(Nc2nc3cccc(-c4ccc5c(c4)OCCO5)n3n2)cc1 [XX-104] | 100 to 1000 | –
7 | Clc1ccccc1COc1cccc(-c2cccc3nc(Nc4ccc(OCCN5CCCC5)cc4)nn23)c1 [XX-339] | 1000 to 10000 | –
8 | O=C(Nc1nc2cccc(-c3ccsc3)n2n1)C1CC1 [WW-059] | 100 to 1000 | < 1000
9 | CS(=O)(=O)c1cccc(-c2cccc3nc(Nc4ccc(OCCN5CCCC5)cc4)nn23)c1 [XX-283] | 100 to 1000 | –
10 | COc1cc(Nc2nc3cccc(-c4ccc5c(c4)OCCO5)n3n2)ccc1OCCN1CCCC1 [XX-001] | ≤ 100 | < 1000
11 | O=C(NCc1cccc(-c2cccc3nc(Nc4ccc(OCCN5CCCC5)cc4)nn23)c1)Nc1ccccc1 [XX-371] | 100 to 1000 | –
12 | CC(C)(C)CNC(=O)Cn1cc(-c2cccc3nc(Nc4ccc(OCCN5CCCC5)cc4)nn23)cn1 [XX-092, N-(2,2-Dimethyl-propyl)-2-(4-{2-[4-(2-pyrrolidin-1-yl-ethoxy)-phenylamino]-[1,2,4]triazolo[1,5-a]pyridin-5-yl}-pyrazol-1-yl)-acetamide] | 1000 to 10000 | –
13 | O=C(Cc1cccc(Cl)c1)Nc1cccc(-c2cccc3nc(Nc4ccc(OCCN5CCCC5)cc4)nn23)c1 [XX-227, 2-(3-Chloro-phenyl)-N-(3-{2-[4-(2-pyrrolidin-1-yl-ethoxy)-phenylamino]-[1,2,4]triazolo[1,5-a]pyridin-5-yl}-phenyl)-acetamide] | 1000 to 10000 | –
14 | c1cc(-c2ccncc2)cc(-c2cccc3nc(Nc4ccc(OCCN5CCCC5)cc4)nn23)c1 [XX-466] | 100 to 1000 | –
15 | COc1ccc(-c2cccc3nc(NC(=O)C4CC4)nn23)cc1OC [WW-100] | 1000 to 10000 | 1000 to 10000
16 | CC(C)CCn1cc(-c2cccc3nc(NC(=O)C4CC4)nn23)cn1 [WW-135] | 1000 to 10000 | 1000 to 10000
17 | CNCCOc1ccc(Nc2nc3cccc(-c4ccc5c(c4)OCCO5)n3n2)cc1C [XX-103] | 100 to 1000 | –
18 | FC(F)(F)c1ccccc1-c1cccc2nc(Nc3ccc(OCCN4CCCC4)cc3)nn12 [XX-195] | 1000 to 10000 | –
19 | Cc1cc(-c2cccc3nc(NC(=O)C4CC4)nn23)cnc1F [WW-088] | 1000 to 10000 | 1000 to 10000
20 | c1ccc2sc(-c3cccc4nc(Nc5ccc(OCCCN6CCCCC6)cc5)nn34)cc2c1 [XX-422] | 100 to 1000 | –
21 | O=C(CN1CCCCC1)Nc1cccc(Nc2nc3cccc(-c4ccc5c(c4)OCCO5)n3n2)c1 [XX-121] | 100 to 1000 | –
22 | FC(F)(F)c1cc(-c2cccc3nc(Nc4ccc(OCCN5CCCC5)cc4)nn23)ccc1Cl [XX-291] | 100 to 1000 | –

Row | Compound | IC50 [1] [nM] | IC50 [2] [nM]
23 | COc1cccc(Cn2cc(-c3cccc4nc(Nc5ccc(OCCN6CCCC6)cc5)nn34)cn2)c1 [XX-369] | 100 to 1000 | –
24 | c1cc(-c2ccc(-c3ccoc3)cc2)n2nc(Nc3ccc(OCCN4CCCC4)cc3)nc2c1 [XX-185] | 100 to 1000 | –
25 | Cc1ccc(CNc2cccc(-c3cccc4nc(Nc5ccc(OCCN6CCCC6)cc5)nn34)c2)o1 [XX-395] | 100 to 1000 | –
26 | Cc1csc(SCCn2cc(-c3cccc4nc(Nc5ccc(OCCN6CCCC6)cc5)nn34)cn2)n1 [XX-424] | 100 to 1000 | –
27 | COc1ccc(-c2cccc3nc(NC(=O)C4CC4)nn23)c(OC)c1 [WW-010, Cyclopropanecarboxylic acid [5-(2,4-dimethoxy-phenyl)-[1,2,4]triazolo[1,5-a]pyridin-2-yl]-amide] | 1000 to 10000 | 1000 to 10000
28 | N#CCCn1cc(-c2cccc3nc(Nc4ccc(OCCN5CCCC5)cc4)nn23)cn1 [XX-351] | 100 to 1000 | –
29 | CNc1ccc(Nc2nc3cccc(-c4ccc(OC)cc4)n3n2)cc1 [XX-056] | 1000 to 10000 | 1000 to 10000
30 | COc1ccc(-c2cccc3nc(Nc4ccc(OCCn5ccnc5)cc4)nn23)cc1 [XX-016] | 100 to 1000 | < 1000
31 | c1cc(-c2cnn(CC3CCCO3)c2)n2nc(Nc3ccc(OCCN4CCCC4)cc3)nc2c1 (stereo not shown) [XX-344] | 100 to 1000 | –
32 | O=C(Nc1ccc(-c2cccc3nc(Nc4ccc(OCCN5CCCC5)cc4)nn23)cc1)c1cccc(Cl)c1 [XX-220] | 1000 to 10000 | –
33 | COCCn1cc(-c2cccc3nc(Nc4ccc(OCCN5CCCC5)cc4)nn23)cn1 [XX-349] | 100 to 1000 | –
34 | CCOc1ccc(-c2nccc3nc(Nc4cccc(OCCN(CC)CC)c4)nn23)cc1 [YY-005] | 1000 to 10000 | –
35 | COc1ccc(-c2cccc3nc(Nc4ccc(C(=O)NCCN(C)C)cc4)nn23)cc1 [XX-036] | 1000 to 10000 | < 1000
36 | Clc1cc(Cl)cc(-c2cccc3nc(Nc4ccc(OCCN5CCCC5)cc4)nn23)c1 [XX-298] | 100 to 1000 | –
37 | COc1ccc(-c2cccc3nc(Nc4ccc(N5CCNCC5)cc4)nn23)cc1 [XX-023, [5-(4-Methoxy-phenyl)-[1,2,4]triazolo[1,5-a]pyridin-2-yl]-(4-piperazin-1-yl-phenyl)-amine] | ≤ 100 | < 1000
38 | c1cc(-c2ccc3occc3c2)n2nc(Nc3ccc(N4CCNCC4)cc3)nc2c1 [XX-058] | ≤ 100 | < 1000
39 | O=C(NCCN1CCCC1)c1ccc(Nc2nc3cccc(-c4ccc5c(c4)OCCO5)n3n2)cc1 [XX-110] | ≤ 100 | –
40 | O=C(Nc1cccc(-c2cccc3nc(Nc4ccc(OCCN5CCCC5)cc4)nn23)c1)c1ccc2nonc2c1 [XX-182] | 100 to 1000 | –
41 | COc1ccc(Nc2nc3cccc(-c4ccc5c(c4)OCCO5)n3n2)cc1OCCN1CCCC1 [XX-132] | ≤ 100 | –
42 | NCc1cc2cc(Nc3nc4cccc(-c5ccc6c(c5)OCCO6)n4n3)ccc2o1 [XX-068] | ≤ 100 | < 1000
43 | COc1ccc(-c2cccc3nc(Nc4cccc(N(C)C(=O)C(C)N5CCCC5)c4)nn23)cc1 (stereo not shown) [XX-390] | ≤ 100 | –
44 | COc1cccc(Nc2cccc3nc(NC(=O)C4CC4)nn23)c1 [WW-160] | 1000 to 10000 | 1000 to 10000

Row | Compound | IC50 [1] [nM] | IC50 [2] [nM]
45 | CC[C@H](COc1ccc(Nc2nc3cccc(-c4ccc(OC)cc4)n3n2)cc1)N1CCCC1 [XX-414] | ≤ 100 | –
46 | O=C(Nc1nc2cccc(-c3cccc(F)c3)n2n1)C1CC1 [WW-007, Cyclopropanecarboxylic acid [5-(3-fIuoro-phenyl)-[1,2,4]triazolo[1,5-a]pyridin-2-yl]-amide] | 1000 to 10000 | 1000 to 10000
47 | O=C(Nc1nc2cccc(-c3ccco3)n2n1)C1CC1 [WW-061] | 1000 to 10000 | 1000 to 10000
48 | CN(C)c1ccc(-c2cccc3nc(Nc4ccc(OCCN5CCCC5)cc4)nn23)cn1 [XX-198] | 100 to 1000 | –
49 | COC(=O)c1ccc(-c2cccc3nc(Nc4ccc(OCCN5CCCC5)cc4)nn23)cc1 [XX-199] | 100 to 1000 | –
50 | COc1ccc(-c2cccc3nc(NC(=O)C4CC4)nn23)cc1 [WW-005, cyclopropanecarboxylic acid [5-(4-methoxy-phenyl)-[1,2,4]triazolo[1,5-a]pyridin-2-yl]-amide] | 100 to 1000 | < 1000
51 | CNCCOc1ccc(Nc2nc3cccc(-c4ccc5c(c4)OCO5)n3n2)cc1 [XX-049] | 100 to 1000 | < 1000
52 | Cc1cc(C)cc(-c2cccc3nc(Nc4ccc(OCCN5CCCC5)cc4)nn23)c1 [XX-292] | 100 to 1000 | –
53 | c1coc(-c2ccc(-c3cccc4nc(Nc5ccc(OCCN6CCCC6)cc5)nn34)cc2)c1 [XX-188] | 100 to 1000 | –
54 | c1cc(-c2ccc3c(c2)CCO3)n2nc(Nc3ccc(OCCN4CCCCC4)cc3)nc2c1 [XX-052] | 100 to 1000 | < 1000
55 | CN(C)CC(C)(C)Oc1ccc(Nc2nc3cccc(-c4ccc5c(c4)OCCO5)n3n2)cc1 [XX-126] | 100 to 1000 | –
56 | c1cncc(CNc2cccc(-c3cccc4nc(Nc5ccc(OCCN6CCCC6)cc5)nn34)c2)c1 [XX-442] | 100 to 1000 | –
57 | O=S(=O)(c1ccc(Nc2nc3cccc(-c4ccc5c(c4)OCCO5)n3n2)cc1)N1CCNCC1 [XX-145] | 100 to 1000 | –
58 | c1cc(NCc2cncs2)cc(-c2cccc3nc(Nc4ccc(OCCN5CCCC5)cc4)nn23)c1 [XX-260] | 1000 to 10000 | –
59 | O=C(Nc1nc2cccc(-c3cc[nH]c3)n2n1)C1CC1 [WW-149] | 1000 to 10000 | 1000 to 10000
60 | COc1ccc2nc(Nc3ccc(OCCN4CCCC4)cc3)nn2c1-c1ccc2c(c1)OCCO2 [XX-323, [5-(2,3-Dihydro-benzo[1,4]dioxin-6-yl)-6-methoxy-[1,2,4]triazolo[1,5-a]pyridin-2-yl]-[4-(2-pyrrolidin-1-yl-ethoxy)-phenyl]-amine] | 1000 to 10000 | –
61 | O=C(Nc1cccc(-c2cccc3nc(Nc4ccc(OCCN5CCCC5)cc4)nn23)c1)Nc1ccccc1Cl [XX-232] | 1000 to 10000 | –
62 | c1cc(-c2ccc3c(c2)OCCO3)n2nc(Nc3ccc(OCCCN4CCCCC4)cc3)nc2c1 [XX-419] | 100 to 1000 | –
63 | COc1ccc(-c2cccc3nc(Nc4ccc(OCCNCc5ccncc5)cc4)nn23)cc1 [XX-032] | ≤ 100 | < 1000
64 | COc1cc(-c2cccc3nc(Nc4ccc(OCCN5CCCC5)cc4)nn23)cc(OC)c1OC [XX-246] | 1000 to 10000 | –
